Test results: US20230104690A1, “MATRIX METALLOPROTEINASE INHIBITORS (MMPIs)” (Brandon University, priority 2020, published 2023)
Entries after “also recorded” stand apart in the source; their conditions may differ.

How the values were obtained:
MMP3 [1] = molecular target: T1, MMP3 (Rattus norvegicus, UniProt P03957); assay: NFF-3 fluorescence assay in C6-13 (C6-Cx43) glioma conditioned media; format: biochemical; settings: 50 μM and 100 μM, over six hours, relative to untreated controls
T1 construct: endogenous in cells; host or cells: C6-13 (C6 glioma clone stably expressing Cx43), conditioned serum-free medium
T1 sequence (P03957 98-475): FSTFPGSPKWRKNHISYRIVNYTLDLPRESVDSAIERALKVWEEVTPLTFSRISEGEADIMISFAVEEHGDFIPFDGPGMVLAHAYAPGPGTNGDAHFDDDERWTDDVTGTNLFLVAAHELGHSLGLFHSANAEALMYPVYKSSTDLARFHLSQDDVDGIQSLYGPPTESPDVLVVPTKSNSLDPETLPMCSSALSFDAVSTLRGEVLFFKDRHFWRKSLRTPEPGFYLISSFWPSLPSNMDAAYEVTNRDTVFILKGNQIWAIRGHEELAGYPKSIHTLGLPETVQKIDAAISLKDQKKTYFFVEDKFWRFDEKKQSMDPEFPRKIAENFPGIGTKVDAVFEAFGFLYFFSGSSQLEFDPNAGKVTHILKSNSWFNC
Protocol: Glioma Cell Culture. […] Anal Bioanal Chem 2010, 398 (1), 477-87). […] Zymography. […] SDS-PAGE/Western Blotting. Conditioned media was collected and chilled on ice. […] Proteins were pelleted by centrifugation (12 minutes, 4800 g). Proteins were suspended in SDS-PAGE loading buffer. […] NFF-3 Fluorescence Assay. […] After conditioning, the media was collected. Each experimental condition had its own control condition. […] The experiment was conducted at 37° C. […] The docking of MMP Inhibitors.
The synthesis of the MMP Inhibitors and NFF3 analysis. The leucine-tryptophan (Leu-Trp) backbone, AP-1, and AP-2 were synthesized. All synthesized compounds were analyzed by mass spectrometry (FIG. 3). The NFF-3 assay was used to determine the biological inhibition of MMP-3 activity for ilomastat and synthesized compounds, Leu-Trp, and AP-1 relative to untreated controls. […] Linear responses of MMP3 activity was robustly measured from about 30 to about 300 minutes. All compounds were tested at a concentration of 50 μM and 100 μM, and compared to determine MMP3 suppression. From FIG. 6, concentration dependent inhibition was observed.

C6 glioma cells = settings: ≤100 uM, propidium iodide stain, data not shown
Description: (§1) Glioma Cell Culture. The C6 glioma line (American Type Culture Collection, ATCC) maintains many characteristics of GBM including cancer stem cell behavior ability to generate GBMs in rats upon injection in the brain (Grobben, B.; De Deyn, P. P.; Slegers, H., Rat C6 glioma as experimental model system for the study of glioblastoma growth and invasion. Cell Tissue Res 2002, 310 (3), 257-70; Zheng, X.; Shen, G.; Yang, X.; Liu, W., Most C6 cells are cancer stem cells: evidence from clonal and population analyses. Cancer Res 2007, 67 (8), 3691-7; and Beljebbar, A.; Dukic, S.; Amharref, N.; Manfait, M., Ex vivo and in vivo diagnosis of C6 glioblastoma development by Raman spectroscopy coupled to a microprobe. Anal Bioanal Chem 2010, 398 (1), 477-87). […] Cell Mol Neurobiol 1992, 12 (2), 163-75.) Glioma cells were maintained at 37° C., 95% air and 5% CO2 in a humidified incubator. Cells were cultivated in high glucose DMEM (4.0 g/L, ThermoFisher Scientific) containing L-glutamine (4.0 mM), antibiotics (penicillin, 100 IU/mL; streptomycin, 100 μg/mL) and 10% fetal bovine serum (FBS; Gibco). For collection of conditioned media, cells were plated in 6-well plate (200,000 cells/well) and grown to 80% confluency over the course of 3 days. […] Protein concentration was determined by BCA assay and samples suspended in SDS loading buffer (no DTT and without boiling). […]

MMP3 [2] = molecular target: T1, MMP3; assay: Gelatin zymography of C6-13 conditioned media; format: cell-based; settings: ilomastat 0-100 uM, 0.1% gelatin
Description: as §1

SMILES	Inhibition of MMP-3 activity (NFF-3 fluorescence) (MMP3 [1])	Cell death (C6 glioma cells)	Loss of MMP3 activity (zymography) (MMP3 [2])
CNC(=O)[C@H](Cc1c[nH]c2ccccc12)NC(=O)[C@@H](CC(=O)NO)CC(C)C [Ilomastat]	perform better than Leu-Trp at inhibiting MMP-3	< 1%	concentration-dependent inhibition of secreted MMP3; also recorded: dose-dependent loss of MMP3 activity
CC(C)C[C@H](N)C(=O)N[C@@H](Cc1c[nH]c2ccccc12)C(=O)O [Leu-Trp]	can act as a competitive inhibitor	–	–
